These results are taken from US20110105550A1 (SALIX PHARMACEUTICALS, LTD., priority 2008, published 2011).

Common to all, as to type: physicochemical
Series [1] is described as follows: Rifaximin drying experiments, solid form by XRPD.
The nature of series [2]: Stressing under various relative humidities (RH), solid form by XRPD. Conditions: for RH stability: solid form after exposure, 58% RH / RH stability: solid form after exposure, 75% RH: duration not printed in Table 1, am = amorphous. The source says:
The jar was sealed and stored at either ambient temperature or in an oven at elevated temperature.

The nature of series [3]: Automated moisture sorption/desorption (moisture balance). The method, then: Moisture sorption/desorption data were collected on a VTI SGA-100 Vapor Sorption Analyzer. Sorption and desorption data were collected over a range of 5% to 95% relative humidity (RH) at 10% RH intervals under a nitrogen purge. Samples were not dried prior to analysis. Equilibrium criteria used for analysis were less than 0.0100% weight change in 5 minutes, with a maximum equilibration time of 3 hours if the weight criterion was not met. Data were not corrected for the initial moisture content of the samples. NaCl and PVP were used as calibration standards.

The nature of series [4]: Dynamic vapor sorption/desorption (DVS) of amorphous preparations. The method, then: Based on the data, relative humidity stressing studies of the two amorphous materials at 40° C./75% RH are recommended.

Structures are written as SMILES. “Also recorded” adds a separate entry of the source.

Take `CO[C@H]1/C=C/O[C@@]2(C)Oc3c(C)c(O)c4c(O)c(c5c(nc6cc(C)ccn65)c4c3C2=O)NC(=O)/C(C)=C\C=C\[C@H](C)[C@H](O)[C@@H](C)[C@@H](O)[C@@H](C)[C@H](OC(C)=O)[C@@H]1C` [Form ε, reference compound]: the “XRPD Form after drying” value in series [1] (vac oven 60-65° C., 3 days, listed as ε) is recorded as “ε dry”.

For `CO[C@H]1/C=C/O[C@@]2(C)Oc3c(C)c(O)c4c(O)c(c5c(nc6cc(C)ccn65)c4c3C2=O)NC(=O)/C(C)=C\C=C\[C@H](C)[C@H](O)[C@@H](C)[C@@H](O)[C@@H](C)[C@H](OC(C)=O)[C@@H]1C` [Form η], the “XRPD Form after drying” value was “remained unchanged” in series [1] (vac oven, 40° C., 1 day) and “η” in series [1] (vac oven, 40° C., 1 day, listed as η). The “Solid form after vacuum drying” value in series [1] (vacuum dried (Table 1 column), listed as η) is “η”.

Consider `CO[C@H]1/C=C/O[C@@]2(C)Oc3c(C)c(O)c4c(O)c(c5c(nc6cc(C)ccn65)c4c3C2=O)NC(=O)/C(C)=C\C=C\[C@H](C)[C@H](O)[C@@H](C)[C@@H](O)[C@@H](C)[C@H](OC(C)=O)[C@@H]1C` [Form β-1], for which the “Final Form (XRPD)” value in series [2] (33% RH, 4 days) is on record as “β”; in series [2] (58% RH, 3 days) it was “β + peak @4.87 °2θ”; in series [2] (75% RH, 3 days), “β”; in series [2] (94% RH, 3 days) it was “β”. For the same molecule, the “RH stability: solid form after exposure, 58% RH” value in series [2] (58% RH, listed as β-1) is on record as “β + pk”. For the same molecule, in series [2] (75% RH, listed as β-1), the “RH stability: solid form after exposure, 75% RH” value is given as “β”. In addition, in series [2] (94% RH, duration not given), the “RH stability: solid form after exposure, 94% RH” value is listed as “β”.

Take `CO[C@H]1/C=C/O[C@@]2(C)Oc3c(C)c(O)c4c(O)c(c5c(nc6cc(C)ccn65)c4c3C2=O)NC(=O)/C(C)=C\C=C\[C@H](C)[C@H](O)[C@@H](C)[C@@H](O)[C@@H](C)[C@H](OC(C)=O)[C@@H]1C` [Form α-dry]: the “Final Form (XRPD)” value in series [2] (33% RH, 2 days) is reported as “α”; in series [2] (33% RH, 7 days), “α”; in series [2] (43% RH, 4 days), “α + β”; in series [2] (43% RH, 11 days), “β + (α)”; in series [2] (58% RH, 2 days) it was “β”; in series [2] (75% RH, 2 days), “β”. The “Final Form (XRPD)” value in series [2] (94% RH, 2 days) is reported as “β”. Moreover, the “RH stability: solid form after exposure, 58% RH” value in series [2] (58% RH, listed as α dry) is “β”. For the same molecule, the “RH stability: solid form after exposure, 75% RH” value in series [2] (75% RH, listed as α dry) is given as “β”. For the same molecule, in series [3] (sorption from 5% RH to 95% RH, desorption from 95% RH to 5% RH, listed as α dry), the “Post-moisture sorption/desorption XRPD form” value was “α dry”. The “XRPD Form after drying” value is recorded as “α dry” in series [1] (vac oven 50° C., 1 day); “α dry” in series [1] (vac oven 50° C., 1 day, vac oven 60° C.); “α dry” in series [1] (vac oven 60-65° C., 3 days, listed as α dry). Besides, in series [1] (vacuum dried (Table 1 column), listed as α dry), the “Solid form after vacuum drying” value is listed as “α dry”.

On to `CO[C@H]1/C=C/O[C@@]2(C)Oc3c(C)c(O)c4c(O)c(c5c(nc6cc(C)ccn65)c4c3C2=O)NC(=O)/C(C)=C\C=C\[C@H](C)[C@H](O)[C@@H](C)[C@@H](O)[C@@H](C)[C@H](OC(C)=O)[C@@H]1C` [Form β-2], for which, in series [2] (under N2 atmosphere, 20% RH, 3 days), the “Final Form (XRPD)” value was “α^d and α”. Further, the “XRPD Form after drying” value in series [1] (vac oven, 40° C., 1 day, listed as β-2) is “α dry”. In series [1] (vacuum dried (Table 1 column), listed as β-2), the “Solid form after vacuum drying” value was “α dry”.

In the case of `CO[C@H]1/C=C/O[C@@]2(C)Oc3c(C)c(O)c4c(O)c(c5c(nc6cc(C)ccn65)c4c3C2=O)NC(=O)/C(C)=C\C=C\[C@H](C)[C@H](O)[C@@H](C)[C@@H](O)[C@@H](C)[C@H](OC(C)=O)[C@@H]1C` [Form ζ], the “Final Form (XRPD)” value was “Form γ” in series [2] (43% RH, 3 days); “γ” in series [2] (43% RH, 3 days, listed as ζ); “Form γ-1 (ζ)” in series [2] (58% RH, 3 days); “Form γ-1 (ζ)” in series [2] (75% RH, 3 days); “Form β+γ-1 (ζ); also recorded: Form β30 γ-1 (ζ)” in series [2] (94% RH, 3 days); “ζ + γ^e” in series [2] (stability chamber, 75% RH at 40° C., 1 day). The “XRPD Form after drying” value in series [1] (air dry) is listed as “γ”; in series [1] (open vial in hood) it was “γ”; in series [1] (vac dry) it was “γ + η”; in series [1] (vac oven, 40° C., 1 day), “remained unchanged”; in series [1] (vac oven, 45° C., 2 days) it was “η”; in series [1] (vac oven, ambient, 1 day), “Form η”. Further, the “XRPD Form after drying” value in series [1] (vac oven, ambient, 1 day, listed as ζ) is “η”. Further, the “XRPD Form after storage” value in series [1] (stored in refrigerator 3 weeks) is reported as “ζ”. For the same molecule, the “Solid form after vacuum drying” value in series [1] (vacuum dried (Table 1)) was “η or and γ + η”.

For `CO[C@H]1/C=C/O[C@@]2(C)Oc3c(C)c(O)c4c(O)c(c5c(nc6cc(C)ccn65)c4c3C2=O)NC(=O)/C(C)=C\C=C\[C@H](C)[C@H](O)[C@@H](C)[C@@H](O)[C@@H](C)[C@H](OC(C)=O)[C@@H]1C` [Form α, reference compound], the “Final Form (XRPD)” value in series [2] (P2O5, 4 days) is given as “α dry”.

Take `CO[C@H]1/C=C/O[C@@]2(C)Oc3c(C)c(O)c4c(O)c(c5c(nc6cc(C)ccn65)c4c3C2=O)NC(=O)/C(C)=C\C=C\[C@H](C)[C@H](O)[C@@H](C)[C@@H](O)[C@@H](C)[C@H](OC(C)=O)[C@@H]1C` [Form δ, reference compound]: the “Final Form (XRPD)” value in series [2] (P2O5, 3 days) is listed as “ε dry”.

Turning to `CO[C@H]1/C=C/O[C@@]2(C)Oc3c(C)c(O)c4c(O)c(c5c(nc6cc(C)ccn65)c4c3C2=O)NC(=O)/C(C)=C\C=C\[C@H](C)[C@H](O)[C@@H](C)[C@@H](O)[C@@H](C)[C@H](OC(C)=O)[C@@H]1C` [Form γ, reference compound], the “wt loss from 95 to 5% RH” value in series [3] (desorption 95 to 5% RH) was 11.7%. In series [3] (equilibration at 5% RH), the “wt loss upon equilibration at 5% RH” value is reported as 2.4%. In series [3] (moisture balance), the Hygroscopicity entry is recorded as “hygroscopic”. The “wt gain from 5 to 95% RH” value in series [3] (sorption 5 to 95% RH) is reported as 10.8%. For the same molecule, the “XRPD Form after drying” value in series [1] (vac oven, ambient, 1 day) is “remained unchanged”.

With `CO[C@H]1/C=C/O[C@@]2(C)Oc3c(C)c(O)c4c(O)c(c5c(nc6cc(C)ccn65)c4c3C2=O)NC(=O)/C(C)=C\C=C\[C@H](C)[C@H](O)[C@@H](C)[C@@H](O)[C@@H](C)[C@H](OC(C)=O)[C@@H]1C` [lyophilized amorphous rifaximin], the “Hygroscopicity (DVS)” value in series [4] (5 to 95% relative humidity) is recorded as “moderately hygroscopic”. Further, the “DVS uptake of water (weight gain)” value in series [4] (from 5 to 95% relative humidity) is on record as “approximately 8%”. For the same molecule, in series [4] (post-DVS), the “Crystallization of post-DVS sample” value is reported as “Crystallization was not observed”.
